A compilation of properties of binary mixtures (doi:10.1007/s10953-008-9260-8)

Experiment: xn = mol fraction of the nth substance listed
Details: 101 kPa, x1 = 1

CCCC[n+]1ccn(C)c1.F[B-](F)(F)F + CCCC[n+]1ccn(C)c1.COS(=O)(=O)[O-]
Details	viscosity [mPa·s]
298.15 K	108.9
299.15 K	103.5
301.15 K	93.2
303.15 K	84.5
304.15 K	80.5
307.15 K	69.9
308.15 K	66.8
